Experimental data reported in PMC7433010, “Exploration of multi‐target effects of 3‐benzoyl‐5‐hydroxychromen‐2‐one in Alzheimer’s disease cell and mouse models” (Aging Cell, 2020).

Test: Cytotoxicity by survived cell number in 293 cells expressing ∆K280 TauRD‐DsRed
Type: cell-based
Conditions: human; for viability at 3 days, 1 µM: % of cells without treatment; for IC50 at 3 days: 293 cells expressing ∆K280 TauRD‐DsRed for 3 days
Excerpt: In ∆K280 TauRD‐DsRed 293 cells, a proaggregant (ΔK280) Tau repeat domain (TauRD) containing residues 244–372 of the full‐length 4R2N Tau441 was fused in‐frame with DsRed fluorophore. Compared to the wild‐type TauRD, the poorly folded ΔK280 TauRD formed aggregates, which adversely affected the folding of fused DsRed and thus decreased DsRed fluorescence, as also evidenced by increase in thioflavin S fluorescence emission (Chang et al., 2017). Thioflavin S is a reporter dye for studies of Tau toxicity and pharmacologic prevention in cell model of tauopathy (Pickhardt et al., 2017). It binds to amyloid fibrils but not monomers and gives a distinct increase in fluorescence emission. Inhibition of Tau aggregation may improve DsRed misfolding, leading to increased fluorescence in ΔK280 TauRD‐DsRed‐expressing cells. Utilizing the established Tet‐on ΔK280 TauRD‐DsRed 293 cells (Chang et al., 2016), licochalcone A and LM compounds were tested for effects of reducing Tau misfolding and anti‐oxidation (Figure S2a). Congo red was included for comparison. […] In the following experiments, DsRed fluorescence was measured in wells containing at least 80% viable cells. […] Due to the features of their effectiveness and less cytotoxicity, licochalcone A (1 μM) and LM‐031 (1 μM) were chosen as the candidate compounds for the following experiments. […] Representative DsRed and thioflavin S fluorescent images of ∆K280 TauRD‐DsRed‐expressing cells untreated or treated with congo red (10 µM), licochalcone A (1 µM), or LM‐031 (1 µM) are shown in Figure S2d.
DsRed fluorescence of proaggregant ∆K280 TauRD-DsRed 293 cells was evaluated to reflect Tau aggregation. On day 1, cells were seeded on a 96-well plate in a density of 0.8 × 10^4 cells/well. […] On the fifth day, the cells were stained with Hoechst 33342 (0.1 µg/ml; Sigma-Aldrich) for 30 min to identify total cell number; DsRed fluorescence images (543 nm excitation and 593 nm emission) were automatically captured by using the ImageXpressMICRO high-content imaging system (Molecular Devices, Sunnyvale, CA, USA) and analyzed using MetaXpress image acquisition and analysis software (Molecular Devices). In addition, the cells were fixed with paraformaldehyde (4% in PBS) for 15 minutes, permeabilized with methanol (80%) for 6 minutes at -20°C, incubated with thioflavin S (0.02%; Sigma-Aldrich) and 4’,6-diamidino-2-phenylindole (DAPI) (0.1 μg/ml; Sigma-Aldrich) for 5 minutes, and washed in ethanol (50%). Thioflavin S images ([…]) were captured and analyzed as described. In general, 2 × 10^4 cells in each biological replicate were analyzed.
Figure S2. ΔK280 TauRD-DsRed 293 cells. (a) Experimental flow chart. Cells were plated on day 1. On day 2, the cells were treated with congo red or test compounds for 8 h; addition of doxycycline (Dox; 1 µg/ml) followed. DsRed/thioﬂavin S fluorescence, ROS, and caspase 3 activity were assessed on day 5. (b) Cytotoxicity of the test compounds against 293 cells expressing ∆K280 TauRD-DsRed for 3 days using the survived cell number (n = 3). IC50 values are listed. (c) Dose response curves of LM-031 based on DsRed fluorescence measurement. (d) Fluorescent images of ΔK280 TauRD-DsRed 293 cells untreated or treated with congo red (10 µM), licochalcone A (1 µM), or LM-031 (1 µM). Nuclei were counterstained with Hoechst 33342 (blue), and merged DsRed and Hoechst 33342 signals were shown. In addition, tau aggregation was monitored by staining with thioﬂavin S (green).

[1] = Tet-on ∆K280 TauRD-DsRed 293 cells (expression induced), ∆K280 TauRD‐DsRed‐expressing 293 cells

Row | SMILES | viability at 3 days, 1 µM [1] | viability at 3 days, 10 µM (Tet-on ∆K280 TauRD-DsRed 293 cells (expression induced), 10 μM, ∆K280 TauRD‐DsRed‐expressing 293 cells) | IC50 at 3 days
1 | O=C(c1ccccc1)c1cc2c(O)cccc2oc1=O [LM‐031, 3‐benzoyl‐5‐hydroxychromen‐2‐one] | 94 to 97% | 91% | 56.6 µM
2 | Nc1c(/N=N/c2ccc(-c3ccc(/N=N/c4cc(S(=O)(=O)O)c5ccccc5c4N)cc3)cc2)cc(S(=O)(=O)O)c2ccccc12 [congo red, reference compound] | – | – | 36.9 µM
3 | C=CC(C)(C)c1cc(/C=C/C(=O)c2ccc(O)cc2)c(OC)cc1O [licochalcone A, reference compound] | 94 to 97% | – | 5.9 µM
4 | COc1ccc(C(=O)/C=C/c2cc(Br)ccc2O)cc1 [LM‐004] | – | – | 5 µM
